Where a name gives a salt, the structure may show the parent alone.
Key:
[1] = system: metabotropic glutamate receptors; assay: Displacement of (1S,3R)-ACPD-sensitive [3H]glutamate binding to rat brain cell membranes (receptor binding); conditions: crude membranes of rat forebrain; compounds 3 and 8 tested as mixture of enantiomers, 6 and 7 as pure enantiomers; read-out: IC50 (concentration that inhibited 50% [3H]glutamate binding)
Method: The binding of [^3 H]glutamate ([^3 H]Glu) was conducted with crude membranes of rat forebrain as described by Schoepp and True. Schoepp and True, Neuroscience Lett., 145, 100-104 (1992); Wright, McDonald, and Schoepp, J. Neurochem., 63, 938-945 (1994). The concentration of the formula I compound that inhibited 50% binding (IC50), or the percent displacement of [^3 H]Glu at a 10 μM or 100 μM concentration of the formula I compound, is shown in Table I.

[2] = biological target: cAMP-linked metabotropic glutamate receptors (rat cerebral cortex); assay: Inhibition of forskolin-stimulated cAMP formation in rat cerebral cortex; format: biochemical
Method: (§1) The formula I compounds are effective in affecting the cAMP-linked metabotropic glutamate receptors. Representative compounds were tested for their ability to decrease forskolin-stimulated cAMP formation in the rat hippocampus and the rat cerebral cortex, using the procedures described in Schoepp and Johnson. Schoepp and Johnson, Neurochem. Int., 22, 277-283 (1993).

[3] = system: Long Evans rats; assay: Auditory startle after nicotine withdrawal; format: in vivo, rat (Long Evans)
Method: This cessation of drug dosing elicits an increased startle response to auditory stimuli.
Long Evans rats (200-400 g; Harlan Sprague Dawley, Columbus, Ind.) were individually housed in a controlled environment on a 12 hour light-dark cycle and given free access to food (Purina Rodent Chow) and water. Rats were anesthetized with isoflurane and Alzet osmotic pumps (Alza Corporation) were implanted subcutaneously.
Test compound was dissolved in a vehicle of purified water and neutralized with 5N NaOH to a PH of 7-8 when applicable. […] Nicotine (Research Biochemicals Inc., Natick, Mass.) was dissolved in saline. Control animals received the respective vehicle.
Twelve days following subcutaneous implantation of pumps, rats were anesthetized with isoflurane and the pumps were removed. During withdrawal (following pump removal), the auditory startle response (peak amplitude, Vmax) of individual rats was recorded using San Diego Instruments startle chambers (San Diego, Calif.). Startle sessions consisted of a 5-minute adaptation period at a background noise level of 70±2 dBA immediately followed by 25 presentations of auditory stimuli (120±2 dBA noise, 50 ms duration) presented at 8-second intervals. Peak startle amplitudes were then averaged for all 25 presentations of stimuli for each session and all data are presented here as overall session means. Auditory startle responding was evaluated daily on withdrawal days 1,2,3,4 or 5. Baseline startle responding was evaluated prior to pump removal on day 12.

[4] = system: Long Evans rats; assay: Auditory startle after diazepam withdrawal; format: in vivo, rat (Long Evans)
[5] = biological target: cAMP-linked metabotropic glutamate receptors (rat hippocampus); assay: Inhibition of forskolin-stimulated cAMP formation in rat hippocampus; format: biochemical
Method: as §1

[6] = system: mice; assay: Automated elevated plus maze model of anxiety; format: in vivo, mouse (male NIH Swiss); conditions: five-minute test
Method: The elevated plus maze model is based upon the natural aversion of rodents to height and open spaces.
(§2) Male Long Evans rats (180-400 g) or male NIH Swiss mice (18-35 g) were obtained from Harlan Sprague-Dawley, Cumberland, Ind., USA and acclimated at least 3 days before testing. Animals were housed at 23±2° C.(relative humidity 30% to 70%) and given Purina Certified Rodent Chow and water ad libitum. The photoperiod was 12 hours of light and 12 hours of dark, with dark onset at approximately 1800 hours.
(§3) Test compounds were dissolved in a vehicle of purified water and neutralized with 5N NaOH to a pH of 7-8 when applicable. […] Control animals received the respective vehicle.
Automated Elevated Plus Maze
Construction of the elevated plus-maze was based on a design validated for mice by Lister (1987). The entire maze was made of clear Plexiglas. The maze was comprised of two open arms (30×5×0.25 cm) and two enclosed arms (30×5×15 cm). The floor of each maze arm was corrugated to provide texture. The arms extended from a central platform and angled at 90 degrees from each other. The maze was elevated to a height of 45 cm above the floor and illuminated by red light. Individual infrared photocells were mounted along each arm of the maze to monitor closed, open, or nosepoke activity. Mice were individually placed on the central platform of the maze and the number of closed arm, open arm, and nosepoke (poking head only into open arm from closed arm of maze) counts were recorded and used as a measure of arm entries and time spent on various sections of the maze over a five-minute test period.

[7] = system: Long Evans rats; assay: Fear potentiated startle model of anxiety; format: in vivo, rat (male Long Evans)
Description: In the fear potentiated startle model, animals are exposed to a neutral stimulus such as light (conditioned stimulus) with an aversive stimulus such as a shock (unconditioned stimulus). Following conditioning, when the animals are presented with a loud acoustic stimulus, larger startle responses are elicited when the startle stimulus is preceded by light.
as §2, §3
SL-LAB (San Diego Instruments, San Diego, Calif.) chambers were used for conditioning sessions and for the production and recording of startle responses. A classical conditioning procedure was used to produce potentiation of startle responses. Briefly, on the first 2 days, rats were placed into dark startle chambers in which shock grids were installed. […]

[8] = system: PI-linked metabotropic glutamate receptors; conditions: literature; for L-CCG-I at higher concentrations; cited from earlier work
[9] = system: cAMP-linked metabotropic glutamate receptors; conditions: literature; cited from earlier work
[10] = system: Long Evans rats; conditions: statement about clinically proven anxiolytics; cited from earlier work
[11] = system: mice; conditions: statement about clinically proven anxiolytics; cited from earlier work

## N[C@@]1(C(=O)O)CC[C@H]2[C@H](C(=O)O)[C@H]21 (racemic) [Compound 3, (1SR,2SR,5RS,6SR) 2-Aminobicyclo[3.1.0]hexane-2,6-dicarboxylic Acid]
[1]
  IC50: 0.32 µM

## N[C@@]1(C(=O)O)CC[C@H]2[C@@H](C(=O)O)[C@H]21 (racemic) [Compound 8, (1SR,2SR,5RS,6RS) 2-Aminobicyclo[3.1.0]hexane-2,6-dicarboxylic Acid]
[1]
  IC50: 3.2 µM

## NC1(C(=O)O)CCC2C(C(=O)O)C21 (single isomer, unassigned; (+)) [Compound 6, (+)-2-Aminobicyclo[3.1.0]hexane-2,6-dicarboxylic Acid]
[2]
  EC50: 0.055 ± 0.017 µM
[3]; 3 mg/kg, p.o., compared to nicotine controls
  attenuation of heightened startle: significant attenuation
[3]; Rattus norvegicus, ip, compared to nicotine controls, route printed i.p., read-out: ED50, attenuation of nicotine withdrawal-induced heightened startle
  ED50: 0.7 mg/kg
[3]; pretreatment, nicotine withdrawal
  withdrawal-induced increase in startle responding after pretreatment: dose-dependent blockade
[4]; 0.1 and 0.3 mg/kg, p.o., compared to control responding
  attenuation of enhanced startle: significantly attenuated enhanced startle
[4]; Rattus norvegicus, po, read-out: ED50, attenuation of diazepam withdrawal-enhanced startle, p.o., compared to control responding
  ED50: 0.1 mg/kg
[4]; pretreatment, diazepam withdrawal
  expected increase in startle responding following cessation of diazepam, after pretreatment: blocked the expected increase in startle responding
[1]
  IC50: 0.18 µM
[5]
  EC50: 0.036 ± 0.015 µM
[6]; oral, 3 mg/kg
  nosepoke counts: significant increase
[6]; oral, 1, 3 and 10 mg/kg
  open arm activity: significant increases
[6]; oral, any dose
  closed arm activity counts: not significantly altered

## NC1(C(=O)O)CCC2C(C(=O)O)C21 (single isomer, unassigned; (-)) [Compound 7, (-)-2-Aminobicyclo[3.1.0]hexane-2,6-dicarboxylic Acid]
[2]
  EC50: 22 ± 3.4 µM
[7]; p.o., Inactive = at highest dose tested, 10 mg/kg p.o.
  ED50, fear potentiated startle: Inactive
[1]
  IC50: 161 µM
[5]
  EC50: 29.4 ± 3.04 µM

## N[C@@]1(C(=O)O)CC[C@@H](C(=O)O)C1 [1S,3R-ACPD, (1S,3R)-1-Aminocyclo-pentane-1,3-dicarboxylic acid]
[8]
  activity at PI-linked metabotropic glutamate receptors: agonist of PI-linked and cAMP-linked metabotropic glutamate receptors
[9]
  agonist activity at cAMP-linked metabotropic glutamate receptors: agonist of PI-linked and cAMP-linked metabotropic glutamate receptors

## CN1C(=O)CN=C(c2ccccc2)c2cc(Cl)ccc21 [Diazepam, reference compound]
[10]
  reduction of fear (increased startle response) associated with presentation of light: effective at reducing the fear (increased startle response)
[11]
  reduction of fear of open spaces in elevated plus maze: reducing the fear of open spaces
[4]; 30 mg/kg, i.p. daily 60 minutes before evaluation, days 1 through 4, vs diazepam control
  increased reactivity following diazepam cessation with diazepam replacement: did not show increased reactivity
[4]; replacement 3 and 10 mg/kg, i.p.
  increased startle responding with diazepam replacement: did not block the increased startle responding
[4]; replacement 3 and 10 mg/kg, i.p., in some instances
  increased reactivity with diazepam replacement: further increased reactivity
[7]; Rattus norvegicus, po, read-out: ED50, fear potentiated startle
  ED50: 0.4 mg/kg

## N[C@H](C(=O)O)[C@H]1C[C@@H]1C(=O)O [L-CCG-I, (2S,3S,4S)-2-(carboxycyclopropyl)glycine]
[8]
  activity at PI-linked metabotropic glutamate receptors: activity at PI-linked metabotropic receptors
[9]
  agonist activity at cAMP-linked metabotropic glutamate receptors: selective cAMP-linked metabotropic glutamate receptor agonist

## O=C1CC2(CCCC2)CC(=O)N1CCCCN1CCN(c2ncccn2)CC1 [buspirone hydrochloride]
[10]
  reduction of fear (increased startle response) associated with presentation of light: effective at reducing the fear (increased startle response)
[11]
  reduction of fear of open spaces in elevated plus maze: reducing the fear of open spaces

## CN1CCC[C@H]1c1cccnc1 [nicotine, reference compound]
[3]; 0.03 mg/kg, i.p., or higher
  heightened startle response with nicotine replacement dose: did not display the same heightened startle response
[3]; first three days after cessation, vs control rats receiving water, nicotine 6 mg/kg/day s.c.
  auditory startle responding following cessation of chronic nicotine exposure: significantly increased
